Here are results for 51 molecules from patent US9611230B2, “1,3,4-oxadiazole benzoic acid compounds and their use for nonsense suppression and the treatment of disease” (PTC Therapeutics, Inc., priority 2004, dated 2017).

A word on the melting point: it is the temperature of the solid-liquid transition.

On to `Cc1ccccc1-c1cnc(-c2ccc(C(=O)O)cc2)o1` [Compound 643], for which the melting point lay in the range of 284 to 286 °C.
As for `CC(C)c1ccc(NC(=O)c2nnc(-c3cccc(C(=O)O)c3)o2)cc1` [Compound 283], the figure is 220 to 226 °C; as for `CC(C)c1ccc(-c2nc(-c3cccc(C(=O)O)c3)co2)cc1` [Compound No. 313, 3-[2-(4-isopropylphenyl)-oxazol-4-yl]benzoic acid], 236 to 239 °C.
For `O=C(O)c1cccc(-c2nnc(-c3ccc(C(=O)N4CCCCC4)cc3)o2)c1` [Compound 285], the melting point is 253 to 256 °C.
The molecule `O=C(O)c1cccc(-c2cc(-c3ccc(CO)cc3)on2)c1` [Compound 575] yielded a melting point of 248 to 250 °C.
As for `COc1cccc(-c2n[nH]c(-c3cccc(C(=O)O)c3)n2)c1` [Compound 458], the figure is 247 to 250 °C; as for `COc1cccc(-c2cnc(-c3cccc(C(=O)O)c3)o2)c1` [Compound 594], 207 to 208 °C; as for `O=C(O)c1cccc(-c2cc(-c3cccc(F)c3)on2)c1` [Compound 475], 242 to 243 °C.
As for `O=C(O)c1cccc(-c2nc(-c3ccc(C(F)(F)F)cc3)n[nH]2)c1` [Compound 456], the figure is 235 to 238 °C; as for `COc1ccc(-c2n[nH]c(-c3cccc(C(=O)O)c3)n2)cc1` [Compound No. 424, 3-[5-(4-methoxy-phenyl)-2H-[1,2,4]triazol-3-yl]-benzoic acid], 287 to 289 °C.
As for `CC(C)c1ccc(NC(=O)c2nnc(-c3ccc(C(=O)O)cc3)o2)cc1` [Compound 284], the figure is 282 to 291 °C; as for `O=C(O)c1ccc(-c2ncc(-c3ccc4c(c3)OCCO4)o2)cc1` [Compound 631], 308 to 309 °C.
The molecule `CC(C)c1ccc(-c2cnc(-c3cccc(C(=O)O)c3)[nH]2)cc1` [Compound No. 277, 3-[5-(4-isopropylphenyl)-1H-imidazol-2-yl]benzoic acid] showed a melting point of 296 to 298 °C.
For the molecule `CN(C)c1ccccc1-c1nnc(-c2ccccc2C(=O)O)o1` [Compound 610], the melting point lay within 180 to 183 °C.
`Cc1ccc(-c2cc(-c3ccc(C(=O)O)cc3)no2)cc1` [Compound 534]: the melting point was 297.5 to 299 °C.
Next, `O=C(O)c1cccc(-c2ncc(-c3ccccc3C(F)(F)F)o2)c1` [Compound 584]: 218 to 219 °C; `O=C(O)c1cccc(-c2nc(-c3ccc(Br)cc3)n[nH]2)c1` [Compound 423]: 309 to 311 °C.
Next, `N#Cc1c(-c2cccc(C(=O)O)c2)noc1-c1ccccc1` [Compound 487]: 249 to 250 °C.
As for `O=C(O)c1ccc(-c2ncc(-c3cccc(C(F)(F)F)c3)o2)cc1` [Compound 543], the figure is 286 to 287 °C.
Take `COc1ccccc1-c1cnc(-c2cccc(C(=O)O)c2)o1` [Compound 593]: the melting point lay within 244 to 246 °C.
Regarding `O=C(O)c1cccc(-c2ncc(-c3cccc(OC(F)(F)F)c3)o2)c1` [Compound 587], the melting point is 210 to 211 °C.
`O=C(O)c1ccc(-c2ncc(-c3ccc(Cl)cc3)o2)cc1` [Compound 639] registered a melting point of 260 to 263 °C.
The molecule `O=C(O)c1ccc(-c2cc(-c3ccccc3F)no2)cc1` [Compound 535] yielded a melting point of 302 to 303 °C.
Turning to `O=C(O)c1ccc(-c2ncc(-c3ccccc3Cl)o2)cc1` [Compound 555], the melting point was 276 to 277 °C.
With `O=C(O)c1cccc(-c2ncc(-c3ccccc3F)o2)c1` [Compound 579], the melting point lay within 228 to 229 °C.
As for `O=C(O)c1cccc(-c2cc(-c3ccc(F)cc3)on2)c1` [Compound 476], the figure is 266.5 to 268 °C.
Turning to `CN(C)c1ccc(-c2nnc(-c3cccc(C(=O)O)c3)o2)cn1` [Compound 223], the melting point was 272 to 274 °C.
As for `O=C(O)c1cccc(-c2nnc(-c3cc4ccccc4[nH]3)o2)c1` [Compound 315], the figure is more than 310 °C; as for `Cc1ccc(-c2cc(-c3ccc(C(=O)O)cc3)on2)cc1` [Compound 541], 307 to 308 °C; as for `CN(C)C(=O)c1ccc(-c2nnc(-c3ccc(C(=O)O)cc3)o2)cc1` [Compound 278], more than 310 °C.
As for `CN(C)c1ccc(-c2nnc(-c3cccc(C(=O)O)c3)o2)cc1` [Compound 4], the figure is 268 to 270 °C; as for `CC(C)c1cccc(-c2nnc(-c3ccc(C(=O)[O-])cc3)o2)c1.[Na+]` [Compound 628], more than 300 °C; as for `CC(C)c1ccc(-c2noc(-c3ccc(C(=O)O)cc3)n2)cc1` [Compound No. 140, 4-[3-(4-isopropylphenyl)-1,2,4-oxadiazol-5-yl]benzoic acid], 253 to 255 °C.
`O=C(O)Cc1ccc(-c2ncc(-c3ccc(F)cc3F)o2)cc1` [Compound 650] gave a melting point of 191 to 193 °C.
Next, `Cc1ccc(-c2noc(-c3cccc(C(=O)O)c3)n2)cc1` [Compound 512]: 243 to 244 °C; `O=C(O)c1ccc(-c2nnc(-c3ccnc(Cl)c3)o2)cc1` [Compound 225]: more than 285 °C.
For the molecule `COC(=O)c1cccc(-c2cc(-c3ccccc3F)on2)c1` [Compound 464], the melting point is 112 to 113.5 °C.
Consider `O=C(O)c1ccc(-c2ncc(-c3ccc(F)c(Cl)c3)o2)cc1` [Compound 649], for which the melting point was in the range of 295 to 297 °C.
Turning to `Cc1ccc(-c2cc(-c3cccc(C(=O)O)c3)no2)cc1` [Compound 573], the melting point was in the range of 257 to 259 °C.
As for `O=C(O)c1ccc(-c2cc(-c3ccc(F)cc3)on2)cc1` [Compound 530], the figure is 318 to 319 °C.
As for `O=C(O)c1cccc(-c2ncc(-c3ccc(F)cc3)o2)c1` [Compound 581], the figure is 255 to 256 °C; as for `O=C(O)c1cccc(-c2nnc(-c3ccc(Cl)nc3)o2)c1` [Compound 222], 278 to 282 °C; as for `O=C(O)c1ccc(-c2nnc(-c3ccnc(Br)c3)o2)cc1` [Compound 292], 275 to 278 °C.
Consider `CC(C)(C)c1ccc(-c2cnc(-c3cccc(C(=O)O)c3)o2)cc1` [Compound 592], for which the melting point was 224 to 225 °C.
On to `O=C(O)c1cccc(-c2nc(-c3ccc(C(F)(F)F)cc3)no2)c1` [Compound 513], for which the melting point lay within 249.5 to 251 °C.
Molecule `O=C(O)c1ccc(-c2ncc(-c3ccccc3F)o2)cc1` [Compound 550] had a melting point of 272 to 273 °C.
As to `CN(C)c1ccc(-c2nnc(-c3cccc(C(=O)[O-])c3)o2)cc1.[Na+]` [Compound 624], the melting point was 227 to 235 °C (dec.).
Next, `COc1ccc(-c2cc(-c3ccc(C(=O)O)cc3)no2)cc1` [Compound 532]: 298 to 300 °C; `O=C(O)c1cccc(-c2cc(-c3ccccc3)on2)c1` [Compound 477]: 245 to 247 °C.
Next, `CC(C)c1ccc(-c2csc(-c3cccc(C(=O)O)c3)c2)cc1` [Compound No. 327, 3-[4-(4-isopropylphenyl)-thiophen-2-yl]-benzoic acid]: 220 to 222 °C; `CN(C)c1ccc(Cc2nnc(-c3ccc(C(=O)O)cc3)o2)cc1` [Compound 86]: 243 to 245 °C.
